Data on 23 compounds can be found in patent publication US20240150356A1, “Pyrimidine amide compounds and use thereof” (ALPHALA CO., LTD., priority 2019, published 2024).

A word on the LC50: it is the concentration lethal to half of the exposed cells or organisms.

Like-named read-outs stand apart in the source and are kept apart here. A value given as a limit tells only on which side of the number the result lay.

The assay deals with Hep3B cells (hepatocellular carcinoma cell line). As to the kind of experiment: In vitro MTS cell viability assay (NCI-60 methodology), Hep3B. The format is cell-based. To be noted: Homo sapiens, 48 h, 2 days drug incubation, 50% reduction vs time zero, read-out: Hep3B LC50. The gist of the method: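 Hep3B cells given five 2-fold dilutions of compound for 2 days, with viability by MTS measured at time zero and at end. LC50 is the concentration giving a 50% fall in viable cells relative to the start of treatment, per NCI-60 formula.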
For orientation: Tetrazolium dyes change colour on reduction, which living cells bring about.

As for `Cc1csc2c(NC(=O)c3ccc([N+](=O)[O-])s3)nc(-c3cc(C(F)(F)F)cc(C(F)(F)F)c3)nc12` [Compound 4-6, N-(2-(3,5-bis(trifluoromethyl)phenyl)-7-methylthieno[3,2-d]pyrimidin-4-yl)-5-nitrothiophene-2-carboxamide], for the setting “Table 4, MTS”, the LC50 worked out at 420 nM.
On to `CC(=O)N1CC[C@H](n2ncc3c(NC(=O)c4ccc([N+](=O)[O-])s4)nc(-c4ccc(F)nc4)nc32)C1` [Compound 8-2, (S)—N-(1-(1-acetylpyrrolidin-3-yl)-6-(6-fluoropyridin-3-yl)-1H-pyrazolo[3,4-d]pyrimidin-4-yl)-5-nitrothiophene-2-carboxamide], for which, where the note is “Table 8, MTS”, the LC50 is greater than 3000 nM.
Regarding `CCOCCOc1ccc(-c2nc(NC(=O)c3ccc([N+](=O)[O-])s3)c3cnn(-c4cccc(F)c4)c3n2)cn1` [Compound 6-95, N-(6-(6-(2-ethoxyethoxy)pyridin-3-yl)-1-(3-fluorophenyl)-1H-pyrazolo[3,4-d]pyrimidin-4-yl)-5-nitrothiophene-2-carboxamide], the LC50 (Table 6, MTS) worked out at 290 nM.
`O=C(Nc1nc(-c2ccc(F)nc2)nc2c1cnn2-c1ccc(Cl)cc1Cl)c1ccc([N+](=O)[O-])s1` [Compound 7-10]: under “Table 7, MTS”, the LC50 is greater than 1250 nM.
For `O=C(Nc1nc(N2CCC(F)(F)CC2)nc2c1cnn2C1CCCCC1)c1ccc([N+](=O)[O-])s1` [Compound 10-2, N-(1-cyclohexyl-6-(4,4-difluoropiperidin-1-yl)-1H-pyrazolo[3,4-d]pyrimidin-4-yl)-5-nitrothiophene-2-carboxamide], where the note is “Table 10, MTS”, the median lethal concentration (LC50) was 3120 nM.
Consider `O=C(Nc1nc(-c2ccc(F)nc2)nc2c1cnn2-c1ccc(F)cc1F)c1ccc([N+](=O)[O-])s1` [Compound 7-13], for which the median lethal concentration (LC50) (Table 7, MTS) worked out at 130 nM.
In the case of `O=C(Nc1nc(-c2ccco2)nc2c1cnn2-c1ccccc1)c1ccc([N+](=O)[O-])s1` [Compound 5-17, N-(6-(furan-2-yl)-1-phenyl-1H-pyrazolo[3,4-d]pyrimidin-4-yl)-5-nitrothiophene-2-carboxamide], under “Table 5, MTS”, the median lethal concentration (LC50) was 400 nM.
As for `O=C(Nc1nc(-c2ccc3c(c2)OCCO3)nc2c1cnn2C1CCCCC1)c1ccc([N+](=O)[O-])s1` [Compound 10-37, N-(1-cyclohexyl-6-(2,3-dihydrobenzo[b][1.4]dioxin-6-yl)-1H-pyrazolo[3,4-d]pyrimidin-4-yl)-5-nitrothiophene-2-carboxamide], the median lethal concentration (LC50) (Table 10, MTS) was 1940 nM.
Take `CC(C)(C)OC(=O)N1CCC(n2cnc3c(NC(=O)c4ccc([N+](=O)[O-])s4)nc(-c4ccc(F)cc4)nc32)CC1` [Compound 4-20, tert-butyl 4-(2-(4-fluorophenyl)-6-(5-nitrothiophene-2-carboxamide)-9H-purin-9-yl) piperidine-1-carboxylate]: the LC50 (Table 4, MTS) is greater than 1250 nM.
`CC1(C)CCC(c2nc(NC(=O)c3ccc([N+](=O)[O-])s3)c3cnn(-c4ccc(F)cc4)c3n2)CC1` [Compound 6-145, N-(6-(4,4-dimethylcyclohexyl)-1-(4-fluorophenyl)-1H-pyrazolo[3,4-d]pyrimidin-4-yl)-5-nitrothiophene-2-carboxamide]: for the setting “Table 6, MTS”, the LC50 turned out to be 890 nM.
As to `Cc1ccc(-n2ncc3c(NC(=O)c4ccc([N+](=O)[O-])s4)nc(-c4ccc(Cl)cc4)nc32)cc1` [Compound 6-7], the LC50 (Table 6, MTS) was 290 nM.
As for `O=C(Nc1nc(-c2cccc(F)c2)nc2c1cnn2-c1cccc(Cl)c1)c1ccc([N+](=O)[O-])s1` [Compound 6-34, N-(1-(3-chlorophenyl)-6-(3-fluorophenyl)-1H-pyrazolo[3,4-d]pyrimidin-4-yl)-5-nitrothiophene-2-carboxamide], where the note is “Table 6, MTS”, the LC50 is 190 nM.
As for `O=C(Nc1nc(-c2ccc(Cl)cc2)nc2c1cnn2C1CCCC1)c1ccc([N+](=O)[O-])s1` [Compound 8-9, N-(6-(4-chlorophenyl)-1-cyclopentyl-1H-pyrazolo[3,4-d]pyrimidin-4-yl)-5-nitrothiophene-2-carboxamide], where the note is “Table 8, MTS”, the LC50 was 940 nM.
In the case of `O=C(Nc1nc(-c2ccc(N3CCOCC3)nc2)nc2c1cnn2-c1ccccc1)c1ccc([N+](=O)[O-])s1` [Compound 5-43, N-(6-(6-morpholinopyridin-3-yl)-1-phenyl-1H-pyrazolo[3,4-d]pyrimidin-4-yl)-5-nitrothiophene-2-carboxamide], where the note is “Table 5, MTS”, the LC50 was 570 nM.
`O=C(Nc1nc(-c2ccc(F)cc2)nc2c1cnn2-c1ccccn1)c1ccc([N+](=O)[O-])s1` [Compound 7-8, N-(6-(4-fluorophenyl)-1-(pyridin-2-yl)-1H-pyrazolo[3,4-d]pyrimidin-4-yl)-5-nitrothiophene-2-carboxamide]: the LC50 (Table 7, MTS) was 580 nM.
Regarding `CCOCCOCCOc1ccc(-c2nc(NC(=O)c3ccc([N+](=O)[O-])s3)c3cnn(-c4ccc(C(F)(F)F)cc4)c3n2)cn1` [Compound 6-56, N-(6(6-(2-(2-ethoxyethoxy)ethoxy)pyridin-3-yl)-1-(4-(trifluoromethyl)phenyl)-1H-pyrazolo[3,4-d]pyrimidin-4-yl)-5-nitrothiophene-2-carboxamide], for the setting “Table 6, MTS”, the LC50 is 200 nM.
Still for that read-out and setting: for `CCOCCOc1ccc(-c2nc(NC(=O)c3ccc([N+](=O)[O-])s3)c3cnn(-c4cccc(Cl)c4)c3n2)cn1` [Compound 6-44, N-(1-(3-chlorophenyl)-6-(6-(2-ethoxyethoxy)pyridin-3-yl)-1H-pyrazolo[3,4-d]pyrimidin-4-yl)-5-nitrothiophene-2-carboxamide] the value was 450 nM.
For `CC(C)n1ncc2c(-c3ccc(OC(F)(F)F)cc3)nc(NC(=O)c3ccc([N+](=O)[O-])s3)nc21` [Compound 2-3, N-(1-isopropyl-4-(4-(trifluoromethoxy)phenyl)-1H-pyrazolo[3,4-d]pyrimidin-6-yl)-5-nitrothiophene-2-carboxamide], the LC50 (Table 2, MTS) was 4020 nM.
Regarding `CCCOc1ccc(-c2nc(NC(=O)c3ccc([N+](=O)[O-])s3)c3cnn(-c4ccc(F)cc4)c3n2)cc1` [Compound 6-132], where the note is “Table 6, MTS”, the LC50 was 430 nM.
Take `CCOC(=O)[C@@H]1CCCN1c1nc(NC(=O)c2ccc([N+](=O)[O-])s2)c2cnn(-c3ccc(F)cc3)c2n1` [Compound 6-101, ethyl (1-(4-fluorophenyl)-4-(5-nitrothiophene-2-carboxamido)-1H-pyrazolo[3,4-d]pyrimidin-6-yl)-L-prolinate]: the LC50 (Table 6, MTS) was greater than 1250 nM.
On to `C=CC(=O)N1CC[C@H](n2ncc3c(NC(=O)c4ccc([N+](=O)[O-])s4)nc(-c4ccc(F)nc4)nc32)C1` [Compound 8-3, (S)—N-(1-(1-acryloylpyrrolidin-3-yl)-6-(6-fluoropyridin-3-yl)-1H-pyrazolo[3,4-d]pyrimidin-4-yl)-5-nitrothiophene-2-carboxamide], for which the LC50 (Table 8, MTS) was greater than 3000 nM.
As to `Cc1ccc(-n2ncc3c(NC(=O)c4ccc([N+](=O)[O-])s4)nc(-c4ccc5c(c4)OCCO5)nc32)cc1` [Compound 6-10, N-(6-(2,3-dihydrobenzo[b][1,4]dioxin-6-yl)-1-(p-tolyl)-1H-pyrazolo[3,4-d]pyrimidin-4-yl)-5-nitrothiophene-2-carboxamide], under “Table 6, MTS”, the LC50 came to 620 nM.
Turning to `Cc1nn(C)c2c(NC(=O)c3ccc([N+](=O)[O-])s3)nc(-c3cccc(OC(F)(F)F)c3)nc12` [Compound 3-4, N-(1,3-dimethyl-5-(3-(trifluoromethoxy)phenyl)-1H-pyrazolo[4,3-d]pyrimidin-7-yl)-5-nitrothiophene-2-carboxamide], for the setting “Table 3, MTS”, the LC50 is 1510 nM.
